Data reported in patent US20220305003A1, “METHODS OF TREATING CANCER WITH AN INHIBITOR OF ZNF827” (CHILDREN'S MEDICAL RESEARCH INSTITUTE, priority 2019, published 2022).

Key:
U-2 OS cells [1] = test: Comet assay (tail moment); type: cell-based
Experimental: Comet assays were performed using the CometAssay® kit (Trevigen) according to the manufacturer's protocol with minor modifications. Briefly, cells were counted and resuspended in PBS. 20 μl of cells at 1×10^5/mL were combined with molten LMAgarose (Trevigen) at 37° C. The cell mixture was pipetted onto the sample area of a prewarmed slide (CometSlide™, Trevigen). Slides were cooled at 4° C. in the dark for 25 minutes, and then immersed in ice-cold lysis solution (CometAssay® kit, Trevigen) at 4° C. overnight. On the following day, slides were removed from lysis solution and gently immersed in ice-cold 1× neutral electrophoresis buffer ([…]) for 30 minutes. Slides were then electrophoresed in 1× neutral electrophoresis buffer ([…]) for 45 minutes at 1 V/cm. Following electrophoresis, slides were immersed in DNA precipitation solution (1 M ammonium acetate in 95% ethanol) for 30 minutes at room temperature. Slides were then transferred and immersed in 70% ethanol for 30 minutes at room temperature. Slides were then dried for 15 minutes at 37° C., incubated with 1 μM YOYO stain (Invitrogen) for 5 minutes, and Prolong Gold Antifade (Invitrogen) and stored at 4° C. until microscope analysis.

U-2 OS cells [2] = test: Topotecan dose-response of cell proliferation after siRNA transfection (IncuCyte); type: cell-based; details: topotecan 0.0039-1 μg/mL, 180 hours, compared to scrambled control
Experimental: U-2 OS cells were plated in a 96-well plate at 4000 cells per well. 24 hours following plating, cells were transfected with either scrambled or ZNF827 siRNAs (Table 2) using Lipofectamine RNAiMAX transfection reagent (ThermoFisher Scientific). 24 hours post siRNA transfection, cells were treated with topotecan at a range of concentrations including 0.0039, 0.0078, 0.0156, 0.03125, 0.0625, 0.125, 0.25, 0.5 and 1 μg/mL in triplicates. DMSO was used as untreated control. Immediately after treatment addition, cells were imaged using the IncuCyte® live cell imaging system at 2-hour intervals for 180 hours. Cell proliferation was measured by phase object confluence calculated by the IncuCyte® analysis software. For IC50s, cell proliferation data were analysed in GraphPad Prism 8 to obtain area under curve (AUC), followed by normalisation and non-linear regression using the log(inhibitor) vs. normalised response -variable slope' function.

siZNF827: Stealth RNAi siRNA ZNF827HSS135819 duplex oligoribonucleotides (Invitrogen), SEQ ID NO: 12 and 13 (chain 1 GGGCAGUCUUCUGGCUGAGAAAUCA; chain 2 UGAUUUCUCAGCCAGAAGACUGCCC; listed as RNA, further chemistry not given here)
DNA damage measured as tail moment (U-2 OS cells [1]; 72 hr siRNA knockdown alone (DMSO)): caused DNA damage measured as tail moment to a similar extent as topotecan treatment
DNA damage measured as tail moment (U-2 OS cells [1]; 72 hr siRNA knockdown in conjunction with topotecan 2 μg/mL 24 hr): further increased the amount of DNA damage
sensitivity to topotecan treatment (cell proliferation dose-response) (U-2 OS cells [2]): markedly increased sensitivity to topotecan treatment
